Measurements taken from US20110165076A1, “NOVEL [F-18]- LABELLED L-GLUTAMIC ACID AND L-GLUTAMINE DERIVATIVES (I), USE THEREOF AND METHOD FOR THEIR PRODUCTION” (BAYER SCHERING PHARMA AKTIENGESELLSCHAFT, priority 2008, published 2011).
Blank lines part the entries; values can stand above or below the compound they belong to.

Key:
[1] = system: H460 tumour; assay: PET in rats bearing H460 tumours; type: in vivo; conditions: 80 min after i.v. 18 MBq, 20 min acquisition
[2] = system: A549 tumours; assay: Organ distribution experiment in mice bearing A549 tumours; type: in vivo; conditions: for % dose/g adrenals / % dose/g blood / % dose/g bone / % dose/g brain / % dose/g fat / % dose/g heart / % dose/g intestine / % dose/g kidney / % dose/g liver / % dose/g lung / % dose/g muscle / % dose/g ovary / % dose/g pancreas / % dose/g skin / % dose/g spleen / % dose/g stomach / % dose/g tail / % dose/g thyroid / % dose/g tumour / % dose/g uterus: i.v. 250 kBq
[3] = system: A549 and H460 tumour cells; assay: Cell uptake of F-18-labelled glutamic acid derivative in tumour cells; conditions: for cellular uptake (FIG. 2): after 30 min
Text: Following labelling with F-18, (2S,4S)-2-amino-4-(3-[F-18]fluoropropyl)pentanedioic acid was examined in cell experiments with A549 and H460 tumour cells (both human non-small-cell bronchial carcinoma cell lines).

[4] = system: A549 tumour; assay: PET/CT imaging in mice bearing A549 tumours; type: in vivo; conditions: 60 min after i.v. 10 MBq, 20 min acquisition
[5] = system: A549 cells; assay: Competition cell experiment: uptake of tracer 4R/S-[F-18]F-L-glutamic acid in presence of competitor; type: cell-based, human; conditions: competitor 1 mM; for % Tracer uptake: A549 cells, 10 min incubation with 0.250 MBq 4R/S-[F-18]F-L-Glu in PBS buffer; for inhibition of tracer uptake (competition): tracer 4R/S-[F-18]F-L-glutamic acid
Procedure: The uptake of the glutamic acid derivatives according to the invention into tumour cells was investigated in cell experiments. Here, the uptake of a radiolabelled glutamic acid derivative (4R/S—[F-18]F-L-glutamic acid) was examined in the presence of the compounds according to the invention and control susbtances (competition experiments). The compounds according to the invention were employed in excess (1 mM) over 4R/S—[F-18]F-L-glutamic acid (tracer).

% dose/g adrenals ([2]; 0.25 h): 0.94 % dose/g
% dose/g adrenals ([2]; 0.5 h): 0.78 % dose/g
% dose/g adrenals ([2]; 1.0 h): 0.27 % dose/g
% dose/g adrenals ([2]; 2.00 h): 0.20 % dose/g
% dose/g blood ([2]; 0.25 h): 0.72 % dose/g
% dose/g blood ([2]; 0.5 h): 0.35 % dose/g
% dose/g blood ([2]; 1.0 h): 0.13 % dose/g
% dose/g blood ([2]; 2.00 h): 0.07 % dose/g
% dose/g bone ([2]; 0.25 h): 0.44 % dose/g
% dose/g bone ([2]; 0.5 h): 0.37 % dose/g
% dose/g bone ([2]; 1.0 h): 0.20 % dose/g
% dose/g bone ([2]; 2.00 h): 0.20 % dose/g
uptake into the bones ([2]; bones, at all points in time): < 0.5 % ID/g
% dose/g brain ([2]; 0.25 h): 0.09 % dose/g
% dose/g brain ([2]; 0.5 h): 0.10 % dose/g
% dose/g brain ([2]; 1.0 h): 0.06 % dose/g
% dose/g brain ([2]; 2.00 h): 0.05 % dose/g
% dose/g fat ([2]; 0.25 h): 0.31 % dose/g
% dose/g fat ([2]; 0.5 h): 0.08 % dose/g
% dose/g fat ([2]; 1.0 h): 0.04 % dose/g
% dose/g fat ([2]; 2.00 h): 0.09 % dose/g
% dose/g heart ([2]; 0.25 h): 0.42 % dose/g
% dose/g heart ([2]; 0.5 h): 0.20 % dose/g
% dose/g heart ([2]; 1.0 h): 0.08 % dose/g
% dose/g heart ([2]; 2.00 h): 0.05 % dose/g
% dose/g intestine ([2]; 0.25 h): 1.27 % dose/g
% dose/g intestine ([2]; 0.5 h): 0.90 % dose/g
% dose/g intestine ([2]; 1.0 h): 0.52 % dose/g
% dose/g intestine ([2]; 2.00 h): 0.32 % dose/g
% dose/g kidney ([2]; 0.25 h): 14.38 % dose/g
% dose/g kidney ([2]; 0.5 h): 6.44 % dose/g
% dose/g kidney ([2]; 1.0 h): 2.01 % dose/g
% dose/g kidney ([2]; 2.00 h): 0.80 % dose/g
uptake in kidneys ([2]; kidneys, after 0.25 h): 14.4 % ID/g
activity in kidneys ([2]; kidneys, after 1 h): 2 % ID/g
% dose/g liver ([2]; 0.25 h): 0.55 % dose/g
% dose/g liver ([2]; 0.5 h): 0.46 % dose/g
% dose/g liver ([2]; 1.0 h): 0.21 % dose/g
% dose/g liver ([2]; 2.00 h): 0.11 % dose/g
% dose/g lung ([2]; 0.25 h): 1.35 % dose/g
% dose/g lung ([2]; 0.5 h): 1.08 % dose/g
% dose/g lung ([2]; 1.0 h): 0.50 % dose/g
% dose/g lung ([2]; 2.00 h): 0.29 % dose/g
% dose/g muscle ([2]; 0.25 h): 0.17 % dose/g
% dose/g muscle ([2]; 0.5 h): 0.09 % dose/g
% dose/g muscle ([2]; 1.0 h): 0.05 % dose/g
% dose/g muscle ([2]; 2.00 h): 0.03 % dose/g
% dose/g ovary ([2]; 0.25 h): 1.82 % dose/g
% dose/g ovary ([2]; 0.5 h): 1.13 % dose/g
% dose/g ovary ([2]; 1.0 h): 0.94 % dose/g
% dose/g ovary ([2]; 2.00 h): 0.28 % dose/g
% dose/g pancreas ([2]; pancreas, 0.25 h): 13.64 % dose/g
% dose/g pancreas ([2]; pancreas, 0.5 h): 8.51 % dose/g
% dose/g pancreas ([2]; pancreas, 1.0 h): 3.99 % dose/g
% dose/g pancreas ([2]; pancreas, 2.00 h): 1.35 % dose/g
uptake in pancreas ([2]; pancreas, after 0.25 h): 13.6 % ID/g
activity in pancreas ([2]; pancreas, after 1 h): 4 % ID/g
% dose/g skin ([2]; 0.25 h): 1.71 % dose/g
% dose/g skin ([2]; 0.5 h): 2.26 % dose/g
% dose/g skin ([2]; 1.0 h): 1.80 % dose/g
% dose/g skin ([2]; 2.00 h): 1.01 % dose/g
% dose/g spleen ([2]; 0.25 h): 2.87 % dose/g
% dose/g spleen ([2]; 0.5 h): 1.76 % dose/g
% dose/g spleen ([2]; 1.0 h): 1.02 % dose/g
% dose/g spleen ([2]; 2.00 h): 0.53 % dose/g
% dose/g stomach ([2]; 0.25 h): 3.25 % dose/g
% dose/g stomach ([2]; 0.5 h): 2.64 % dose/g
% dose/g stomach ([2]; 1.0 h): 0.96 % dose/g
% dose/g stomach ([2]; 2.00 h): 0.39 % dose/g
% dose/g tail ([2]; 0.25 h): 2.74 % dose/g
% dose/g tail ([2]; 0.5 h): 3.45 % dose/g
% dose/g tail ([2]; 1.0 h): 1.19 % dose/g
% dose/g tail ([2]; 2.00 h): 1.69 % dose/g
% dose/g thyroid ([2]; 0.25 h): 1.17 % dose/g
% dose/g thyroid ([2]; 0.5 h): 1.31 % dose/g
% dose/g thyroid ([2]; 1.0 h): 0.77 % dose/g
% dose/g thyroid ([2]; 2.00 h): 0.42 % dose/g
% dose/g tumour ([2]; tumour, 0.25 h): 2.42 % dose/g
injected dose per g in the tumour ([2]; tumour, 0.25 h after injection): 2.4 % ID/g
% dose/g tumour ([2]; tumour, 0.5 h): 1.82 % dose/g
% dose/g tumour ([2]; tumour, 1.0 h): 1.58 % dose/g
% dose/g tumour ([2]; tumour, 2.00 h): 0.97 % dose/g
tumour uptake ([2]; tumour, after 1 h): 1.6 % ID/g
% dose/g uterus ([2]; 0.25 h): 1.30 % dose/g
% dose/g uterus ([2]; 0.5 h): 1.27 % dose/g
% dose/g uterus ([2]; 1.0 h): 0.93 % dose/g
% dose/g uterus ([2]; 2.00 h): 0.37 % dose/g
SMILES: N[C@@H](C[C@H](CCC[18F])C(=O)O)C(=O)O
uptake into the H460 tumour (PET image analysis) [1]: high uptake
cellular uptake (FIG. 2) [3]: 840 000 cpm/100 000 cells
cellular uptake ([3]; after 30 min of incubation, A549 and H460 tumour cells): 899 000 cpm per 100 000 cells
accumulation in tumour cells compared to [F-18]FDG ([3]; after 30 minutes of incubation): accumulates to a greater degree
uptake into the A549 tumour (PET/CT image analysis) [4]: high uptake

SMILES: N[C@@H](C[C@H](CCCF)C(=O)O)C(=O)O [4S-(3-fluoropropyl)-L-Glu, (2S,4S)-2-Amino-4-(3-fluoropropyl)pentanedioic acid]
% Tracer uptake [5]: 5.4%
inhibition of tracer uptake (competition) [5]: > 94%

SMILES: N[C@@H](C[C@@H](O)C(=O)O)C(=O)O [(4R)-hydroxy-L-Glu]
% Tracer uptake [5]: 29.6%
inhibition of tracer uptake (competition) [5]: 70%

SMILES: C[C@H](C[C@H](N)C(=O)O)C(=O)O [(4R)-methyl-L-Glu]
% Tracer uptake [5]: 33.5%
inhibition of tracer uptake (competition) [5]: 64%

SMILES: NC(CC(F)C(=O)O)C(=O)O [(4R/S)-fluoro-D/L-Glu]
% Tracer uptake [5]: 16.3%

SMILES: N[C@@H](C[C@H](O)C(=O)O)C(=O)O [(4S)-hydroxy-L-Glu]
% Tracer uptake [5]: 13.2%
inhibition of tracer uptake (competition) [5]: 87%

SMILES: C[C@@H](C[C@H](N)C(=O)O)C(=O)O [(4S)-methyl-L-Glu]
% Tracer uptake [5]: 7.7%
inhibition of tracer uptake (competition) [5]: 92%

SMILES: N[C@@H](CCC(=O)O)C(=O)O [L-Glu, L-configured glutamic acid]
% Tracer uptake [5]: 12.6%
inhibition of tracer uptake (competition) [5]: 87%

SMILES: OC[C@H]1OC(O)[C@H]([18F])[C@@H](O)[C@@H]1O (stereo partly shown) [[F-18]FDG, [^18F]-2-Fluorodeoxyglucose, reference compound]
cellular uptake (FIG. 2) [3]: 770 000 cpm/100 000 cells
